Measurements as given in patent publication US7501383B2, “Substituted [1,2,4]triazolo[1,5-a]pyrimidines and their use for controlling harmful fungi” (BASF Aktiengesellschaft, priority 2004, dated 2009).

- melting point: 193 to 194 °C
Structure (SMILES): CCCCCCc1nc2nnnc-2c(N)n1C [I-2, 5-hexyl-6-methyl-7-aminotriazolopyrimidine]
